Assay results as given in patent US12630498B2 (Genzyme Corporation, priority 2019, dated 2026).
pEC50: −log10 of the molar value.

Legend:
[1] = target: T1, CFTR-mediated transepithelial chloride transport in primary human bronchial epithelial cells from a ΔF508 homozygous CF donor (Homo sapiens, UniProt P13569, DEL508-508); assay: TECC24 recording of CFTR-mediated transepithelial chloride transport in CF-HBE cells (AUC fold over DMSO); assay type: cell-based; settings: test agent 10 μM, 48 hours incubation, AUC of forskolin-stimulated IEQ relative to DMSO
T1 construct: Primary human bronchial epithelial cells from a ΔF508 homozygous CF donor; host or cells: primary CF-HBE cells, ΔF508 homozygous donor
T1 sequence (P13569 with tags, fused parts or gaps DEL508-508): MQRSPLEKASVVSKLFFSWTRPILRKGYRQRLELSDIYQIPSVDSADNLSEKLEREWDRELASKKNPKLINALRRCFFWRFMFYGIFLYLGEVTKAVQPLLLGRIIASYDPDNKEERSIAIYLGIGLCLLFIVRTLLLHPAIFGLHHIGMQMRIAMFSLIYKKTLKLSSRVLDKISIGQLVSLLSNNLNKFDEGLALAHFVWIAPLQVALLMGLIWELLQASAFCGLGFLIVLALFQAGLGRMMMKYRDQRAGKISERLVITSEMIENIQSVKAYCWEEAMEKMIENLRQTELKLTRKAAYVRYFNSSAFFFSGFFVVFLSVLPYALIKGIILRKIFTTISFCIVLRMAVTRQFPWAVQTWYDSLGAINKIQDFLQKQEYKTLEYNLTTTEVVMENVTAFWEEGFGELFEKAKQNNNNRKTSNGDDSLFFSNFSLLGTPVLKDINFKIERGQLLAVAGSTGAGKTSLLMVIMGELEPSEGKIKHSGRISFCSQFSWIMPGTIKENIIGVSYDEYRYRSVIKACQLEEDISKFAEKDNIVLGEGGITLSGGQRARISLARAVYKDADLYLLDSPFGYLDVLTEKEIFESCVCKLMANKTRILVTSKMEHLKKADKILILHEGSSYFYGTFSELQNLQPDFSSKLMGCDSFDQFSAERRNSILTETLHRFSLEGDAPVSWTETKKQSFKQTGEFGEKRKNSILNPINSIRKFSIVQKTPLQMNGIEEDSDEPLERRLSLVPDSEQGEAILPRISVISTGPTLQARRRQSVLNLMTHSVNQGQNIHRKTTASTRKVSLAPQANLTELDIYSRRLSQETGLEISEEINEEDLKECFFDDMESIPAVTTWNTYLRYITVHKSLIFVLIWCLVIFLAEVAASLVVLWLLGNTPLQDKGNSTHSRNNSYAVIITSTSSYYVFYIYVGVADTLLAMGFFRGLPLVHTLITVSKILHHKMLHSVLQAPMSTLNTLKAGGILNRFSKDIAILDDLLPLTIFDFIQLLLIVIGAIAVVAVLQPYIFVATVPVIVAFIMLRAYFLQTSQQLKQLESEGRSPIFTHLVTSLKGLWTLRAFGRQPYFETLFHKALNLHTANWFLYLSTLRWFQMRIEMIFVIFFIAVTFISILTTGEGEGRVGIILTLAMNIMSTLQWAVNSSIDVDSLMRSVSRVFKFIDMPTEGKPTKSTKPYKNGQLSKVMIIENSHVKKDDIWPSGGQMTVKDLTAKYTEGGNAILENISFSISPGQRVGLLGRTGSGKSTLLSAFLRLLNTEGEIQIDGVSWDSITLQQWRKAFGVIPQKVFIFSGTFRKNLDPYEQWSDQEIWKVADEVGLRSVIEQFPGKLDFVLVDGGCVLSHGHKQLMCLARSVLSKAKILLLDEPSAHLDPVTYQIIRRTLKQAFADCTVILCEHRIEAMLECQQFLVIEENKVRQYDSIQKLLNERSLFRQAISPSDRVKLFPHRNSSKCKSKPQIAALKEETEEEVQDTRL
Method: Example 316: TECC24 AUC Fold Over DMSO @ 10 uM
The effects of a test agent on CFTR-mediated transepithelial chloride transport was measured using TECC24 recording analysis. Test agents were solubilized in DMSO. Solubilized test agents were mixed with incubation medium containing DMEM/F12, Ultroser G (2%; Crescent Chemical, catalog #67042), Hyclone Fetal Clone II (2%; GE Healthcare, catalog #SH30066.02), bovine brain extract (0.25%; Lonza, catalog #CC-4098), insulin (2.5 μg/mL), IL-13 (10 ng/mL), hydrocortisone (20 nM), transferrin (2.5 μg/mL), triiodothyronine (500 nM), ethanolamine (250 nM), epinephrine (1.5 μM), phosphoethanolamine (250 nM), and retinoic acid (10 nM). Primary human bronchial epithelial cells from a ΔF508 homozygous CF donor (CF-HBE cells; from University of North Carolina Cystic Fibrosis Tissue Procurement Center), grown on Transwell HTS 24-well cell culture inserts (Costar, catalog #3378), were exposed to test agents or controls dissolved in incubation medium. The CF-HBE cells were cultured at 36.5° C. for 48 hours before TECC24 recordings were performed in the presence or absence of test agent, a positive control or vehicle (DMSO).
Following incubation, the transwell cell culture inserts containing the test agent or control-treated CF-HBE cells were loaded onto a TECC24 apparatus (TECC v7 or MTECC v2; EP Design) to record the transepithelial voltage (VT) and resistance (TEER) using 4 AgCl electrodes per well configured in current-clamp mode. The apical and basolateral bath solutions both contained (in mM) 140 NaCl, 5 KCl, 2 CaCl2), 1 MgCl2, 10 Hepes, and 10 glucose (adjusted to pH 7.4 with NaOH). To inhibit basal Na+ absorption, the ENaC inhibitor benzamil (10 μM) was added to the bath. Then, the adenylate cyclase activator, forskolin (10 μM), was added to the bath to activate CFTR. The forskolin-stimulated Cl-transport was halted by addition of CFTR inhibitor-172 (20 μM) to the bath at the end of the experiment to confirm specificity. VT and TEER recordings were digitally acquired at routine intervals using TECC or MTECC software (EP Design). VT and TEER were transformed into equivalent transepithelial Cl-current (IEQ), and the Area Under the Curve (AUC) of the IEQ time course between forskolin and CFTR inhibitor-172 addition was generated using Excel (Microsoft). Efficacy is expressed as the ratio of the test agent AUC divided by vehicle AUC. EC50s based on AUC are generated using the non-linear regression log(agonist) vs. response function in Prism software (GraphPad) with Hill Slope fixed=1.
If a test agent increased the AUC of the forskolin-stimulated IEQ relative to vehicle in CF-HBE cells, and this increase was inhibited by CFTR inhibitor-172, then the test agent was considered a CFTR corrector.

[2] = target: T2, human Cystic Fibrosis Transmembrane Conductance Regulator (CFTR) harboring the ΔF508 mutation (Homo sapiens, UniProt P13569, DEL508-508); assay: H441 cell ΔF508-CFTR-HRP cell surface assay (Emax and EC50); assay type: cell-based; settings: for Emax: NCI-H441, NA = Not active
T2 construct: expressed in transfected cells; host or cells: H441 carcinoma line (G418-selected)
T2 sequence (P13569 with tags, fused parts or gaps DEL508-508): as above
Procedure, shortened: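 H441 and 41o- bronchial epithelial cells expressing ΔF508-CFTR with an extracellular-loop-4 HRP tag were treated with a 15-point compound series (24.5–0.001 μM) for two nights, H441 at 27° C, 41o- at 37° C with 0.0005 mg/ml doxycycline. Surface HRP luminescence read; % of maximum VX809 signal and EC50 derived.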

SMILES	TECC24 AUC fold over DMSO @10 μM [1]	pEC50 [2]	Emax [2] [%]
CCC(C)(C)[C@H](NC(=O)c1ccc2c(F)cccc2c1OCc1ccc(C(F)(F)F)cc1)C(=O)O [Example 230, (2S)-2-[[5-fluoro-1-[[4-(trifluoromethyl)phenyl]methoxy]naphthalene-2-carbonyl]amino]-3,3-dimethyl-pentanoic Acid]	A (“A” refers to AUC @10 uM >6)	6.22	152
CC(C)(C)[C@H](NC(=O)c1ccc2cc(F)ccc2c1OCc1ccc(OC(F)(F)F)cc1)C(=O)O [Example 19, (S)-2-(6-fluoro-1-((4-(trifluoromethoxy)benzyl)oxy)-2-naphthamido)-3,3-dimethylbutanoic Acid]	C (“C” refers to AUC @10 uM <4)	4.66	48.3
CCC(C)(C)[C@H](NC(=O)c1ccc2ccc(C)cc2c1OCCCC(C)C)C(=O)O [Example 294, 3,3-Dimethyl-2-{[7-methyl-1-(4-methyl-pentyloxy)-naphthalene-2-carbonyl]-amino}-pentanoic Acid]	A (“A” refers to AUC @10 uM >6)	6.00	281
CC(C)(c1ccccc1)[C@H](NC(=O)c1ccc2cc(F)ccc2c1OCc1ccc(SC(F)(F)F)cc1)C(=O)O [Example 10, (S)-2-(6-fluoro-1-((4-((trifluoromethyl)thio)benzyl)oxy)-2-naphthamido)-3-methyl-3-phenylbutanoic Acid]	C (“C” refers to AUC @10 uM <4)		
CCC(C)(C)[C@@H](NC(=O)c1ccc2ccc(C)cc2c1OCc1ccc(C(F)(F)F)cc1)C(=O)O [Example 305, (R)-3,3-dimethyl-2-(7-methyl-1-((4-(trifluoromethyl)benzyl)oxy)-2-naphthamido)pentanoic Acid]	A (“A” refers to AUC @10 uM >6)		
CC(C)(C)C#CCOc1c(C(=O)N[C@H](C(=O)O)C(C)(C)C)ccc2cc(F)ccc12 [Example 266, (2S)-2-[[1-(4,4-dimethylpent-2-ynoxy)-6-fluoro-naphthalene-2-carbonyl]amino]-3,3-dimethyl-butanoic Acid]		5.27	149
CC(C)(C)C[C@H](NC(=O)c1ccc2cc(F)ccc2c1OCC1CCC(F)(F)CC1)C(=O)O [Example 109, (S)-2-(1-((4,4-difluorocyclohexyl)methoxy)-6-fluoro-2-naphthamido)-4,4-dimethylpentanoic Acid]		4.85	52.7
O=C(NC(C(=O)O)C(C(F)(F)F)C(F)(F)F)c1ccc2ccccc2c1OCc1ccc(C(F)(F)F)cc1 (centres unmarked) [Example 181, 4,4,4-trifluoro-3-(trifluoromethyl)-2-(1-((4-(trifluoromethyl)benzyl)oxy)-2-naphthamido)butanoic Acid]		4.86	93.2
CC(C)(C)C[C@H](NC(=O)c1ccc2ccccc2c1OCc1ccc(S(=O)(=O)C(F)(F)F)cc1)C(=O)O [Example 157, (S)-4,4-dimethyl-2-(1-((4-((trifluoromethyl)sulfonyl)benzyl)oxy)-2-naphthamido)pentanoic Acid]		5.15	55
Cc1ccc2ccc(C(=O)N[C@H](C(=O)O)C3(C)CC3)c(OCc3ccc(C(F)(F)F)cc3)c2c1 [Example 229, (2S)-2-(1-methylcyclopropyl)-2-[[7-methyl-1-[[4-(trifluoromethyl)phenyl]methoxy]naphthalene-2-carbonyl]amino]acetic Acid]		5.74	177

Further lines, results first:

TECC24 AUC fold over DMSO @10 μM [1]	pEC50 [2]	Emax [2] [%]	SMILES
C (“C” refers to AUC @10 uM <4)	5.82	154	CC(OCc1ccccc1)[C@H](NC(=O)c1ccc2cc(F)ccc2c1OCc1ccc(Cl)c(Cl)c1)C(=O)O (stereo in doubt) [Example 208, O-benzyl-N-(1-((3,4-dichlorobenzyl)oxy)-6-fluoro-2-naphthoyl)-L-allothreonine]
C (“C” refers to AUC @10 uM <4)			CC(C)(C)c1ccc(COc2c(C(=O)N[C@@H](Cc3ccccc3)C(=O)O)ccc3ccccc23)cc1 [Example 96, (1-((4-(tert-butyl)benzyl)oxy)-2-naphthoyl)-L-phenylalanine]
C (“C” refers to AUC @10 uM <4)			O=C(N[C@@H](Cc1ccccc1)C(=O)O)c1ccc2ccccc2c1OCc1ccc(F)cc1 [Example 94]
C (“C” refers to AUC @10 uM <4)			CC(C)(C)C[C@H](NC(=O)c1ccc2cc(F)ccc2c1OCc1ccc(Cl)c(Cl)c1)C(=O)O [Example 211, (S)-2-(1-((3,4-dichlorobenzyl)oxy)-6-fluoro-2-naphthamido)-4,4-dimethylpentanoic Acid]
	4.92	72.6	Cc1cc(COc2c(C(=O)NC(C(=O)O)[C@@H](C)OCc3ccccc3)ccc3ccccc23)no1 (stereo partly drawn) [Example 145, (3R)-3-(benzyloxy)-2-(1-((5-methylisoxazol-3-yl)methoxy)-2-naphthamido)butanoic Acid]
C (“C” refers to AUC @10 uM <4)			CC(OCc1ccccc1)[C@H](NC(=O)c1ccc2ccccc2c1OCc1ccc(OC(F)(F)F)cc1)C(=O)O (stereo in doubt) [Example 188, O-benzyl-N-(1-((4-(trifluoromethoxy)benzyl)oxy)-2-naphthoyl)-L-allothreonine]
	5.66	18.1	O=C(N[C@H](C(=O)O)C12CC(C(F)(F)F)(C1)C2)c1ccc2ccccc2c1OCc1ccc(S(=O)(=O)C(F)(F)F)cc1 [Example 3, (S)-2-(3-(trifluoromethyl)bicyclo[1.1.1]pentan-1-yl)-2-(1-((4-((trifluoromethyl)sulfonyl)benzyl)oxy)-2-naphthamido)acetic Acid]
	6.52	63.6	CC(C)(c1ccccc1)[C@H](NC(=O)c1ccc2cc(F)ccc2c1OCc1ccc(SC(F)(F)F)cc1)C(=O)O [Example 22, (S)-2-(6-fluoro-1-((4-((trifluoromethyl)thio)benzyl)oxy)-2-naphthamido)-3-methyl-3-phenylbutanoic Acid]
	5.80	26	COc1ccc2c(OCc3ccc(SC(F)(F)F)cc3)c(C(=O)N[C@H](C(=O)O)C3CCCC3)ccc2c1 [Example 162, (S)-2-cyclopentyl-2-(6-methoxy-1-((4-((trifluoromethyl)thio)benzyl)oxy)-2-naphthamido)acetic Acid]
	6.70	392	CCC(C)(C)[C@H](NC(=O)c1ccc2c(F)cc(C)cc2c1OCc1ccc(C(F)(F)F)cc1)C(=O)O [Example 272, (2S)-2-[[5-fluoro-7-methyl-1-[[4-(trifluoromethyl)phenyl]methoxy]-naphthalene-2-carbonyl]amino]-3,3-dimethyl-pentanoic Acid]
	4.91	166	CC(C)(C)[C@H](NC(=O)c1ccc2ccccc2c1OCC#CC1CC1)C(=O)O [Example 270, (2S)-2-[[1-(3-cyclopropylprop-2-ynoxy)naphthalene-2-carbonyl]amino]-3,3-dimethyl-butanoic Acid]
C (“C” refers to AUC @10 uM <4)			O=C(N[C@@H](Cc1ccc(C(F)(F)F)cc1)C(=O)O)c1ccc2cc(F)ccc2c1OCc1ccc(OC(F)(F)F)cc1 [Example 194, (S)-2-(6-fluoro-1-((4-(trifluoromethoxy)benzyl)oxy)-2-naphthamido)-3-(4-(trifluoromethyl)phenyl)propanoic Acid]
